The record followed here is patent US20230218255A1, “IMAGING OF MYELOMA BONE LESIONS” (Blue Earth Diagnostics Limited, priority 2022, published 2023).

This data set concerns myeloma bone lesion. As to the kind of experiment: [^18F]-FACBC PET and fused PET/CT imaging of the lumbar vertebrae. Type of data set: in vivo. To be noted: coronal PET and PET/CT of lumbar vertebrae; PET acquisition started 5 minutes after administration of 319 MBq. How it is done: In an exemplary method, lesion [^18F]-FACBC uptake is visually compared to [^18F]-FACBC activity in the bone marrow. [^18F]-FACBC uptake higher than the bone marrow is considered as suspicious for myeloma. [^18F]-FACBC uptake similar or less than the bone marrow is considered as non-suspicious for myeloma.
FIG. 1: Coronal [^18F]-FACBC PET (left) and fused PET/CT (right) images of the lumbar vertebrae. […] The PET scan acquisition was started 5 minutes after administration of 319 MBq of [^18F]-FACBC.
In an aspect of the present disclosure, there is provided a method of diagnosing myeloma bone lesions in a subject comprising the steps of: • (a) administering a detectable amount of [^18F]-FACBC to the subject; • (b) acquiring one or more positron emission tomography (PET) scan images of the subject for a region of the subject that includes a potential myeloma bone lesion; and • (c) comparing [^18F]-FACBC uptake in the potential lesion against [^18F]-FACBC uptake in the bone marrow of the region of the subject; wherein lesion [^18F]-FACBC uptake which is higher than bone marrow [^18F]-FACBC uptake is indicative of the presence of myeloma bone lesions.

Take `N[C@]1(C(=O)O)C[C@@H](F)C1` [[^18F]-FACBC, anti-1-amino-3-^18F-fluorocyclobutane-1-carboxylic acid]: the “[^18F]-FACBC uptake in area diagnosed as a lesion compared with surrounding bone marrow” value is “higher than the surrounding bone marrow”.
